Reference: patent publication US20190008779A1, “GEMCABENE COMPOSITIONS AND METHODS OF USE THEREOF” (GEMPHIRE THERAPEUTICS INC., priority 2017, published 2019)
Where two headings read alike, the source gives them in different places.

What was measured:
[1] = target: T1, HMG-CoA reductase (Homo sapiens, UniProt P04035); details: cited from earlier work
T1 sequence (P04035 1-888): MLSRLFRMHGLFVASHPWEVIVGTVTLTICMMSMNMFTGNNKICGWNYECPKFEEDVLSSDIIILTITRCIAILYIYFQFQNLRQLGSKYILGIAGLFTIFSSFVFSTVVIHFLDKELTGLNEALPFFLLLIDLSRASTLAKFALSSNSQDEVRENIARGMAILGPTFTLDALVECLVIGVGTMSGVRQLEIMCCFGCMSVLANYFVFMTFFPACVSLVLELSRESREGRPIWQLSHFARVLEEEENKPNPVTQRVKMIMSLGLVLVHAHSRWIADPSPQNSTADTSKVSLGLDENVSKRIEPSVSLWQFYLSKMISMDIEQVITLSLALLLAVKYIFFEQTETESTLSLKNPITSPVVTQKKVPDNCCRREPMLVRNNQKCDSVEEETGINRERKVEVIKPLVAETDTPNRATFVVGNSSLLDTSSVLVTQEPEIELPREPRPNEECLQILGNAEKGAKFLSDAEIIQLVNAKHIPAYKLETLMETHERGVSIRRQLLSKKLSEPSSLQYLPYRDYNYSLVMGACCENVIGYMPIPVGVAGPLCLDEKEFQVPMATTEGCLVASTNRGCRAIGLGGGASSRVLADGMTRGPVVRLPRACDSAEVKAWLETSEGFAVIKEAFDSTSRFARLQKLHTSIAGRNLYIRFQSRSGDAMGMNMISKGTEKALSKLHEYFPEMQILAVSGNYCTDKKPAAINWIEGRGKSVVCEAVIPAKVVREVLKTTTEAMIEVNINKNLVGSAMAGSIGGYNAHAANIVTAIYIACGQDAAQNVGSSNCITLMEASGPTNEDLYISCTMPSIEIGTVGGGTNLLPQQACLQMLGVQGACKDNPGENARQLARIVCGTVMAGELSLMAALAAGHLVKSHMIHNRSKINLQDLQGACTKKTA

[2] = Pharmacokinetic analysis after a single oral dose to male dogs (plasma atorvastatin, metabolites, gemcabene); type: in vivo, beagle dogs; details: administered in the absence of atorvastatin calcium versus with atorvastatin calcium (FIG. 15)
[3] = tested on: hypercholesterolemic human subjects; details: cited from earlier work
[4] = in vivo; cited from earlier work

CC(C)c1c(C(=O)Nc2ccccc2O)c(-c2ccccc2)c(-c2ccc(F)cc2)n1CCC(O)CC(O)CC(=O)O (centres unmarked) [2-hydroxy-atorvastatin acid]
pharmacological activity (inhibitory activity on HMG-CoA reductase) [1]: pharmacologically equipotent to parent atorvastatin
pharmacological activity (inhibitory activity on HMG-CoA reductase) ([1]; listed as 2-hydroxy-atrovastatin): active towards HMG-CoA reductase

CC(C)c1c(C(=O)Nc2ccccc2O)c(-c2ccccc2)c(-c2ccc(F)cc2)n1CCC1CC(O)CC(=O)O1 (centres unmarked) [2-hydroxy-atorvastatin lactone]
pharmacological activity (inhibitory activity on HMG-CoA reductase) [1]: pharmacologically inactive

CC(C)c1c(C(=O)Nc2ccc(O)cc2)c(-c2ccccc2)c(-c2ccc(F)cc2)n1CC[C@@H](O)C[C@@H](O)CC(=O)O [4-hydroxy-atorvastatin acid]
pharmacological activity (inhibitory activity on HMG-CoA reductase) [1]: pharmacologically equipotent to parent atorvastatin
pharmacological activity (inhibitory activity on HMG-CoA reductase) ([1]; listed as 4-hydroxy-atorvastatin): active towards HMG-CoA reductase

CC(C)c1c(C(=O)Nc2ccc(O)cc2)c(-c2ccccc2)c(-c2ccc(F)cc2)n1CCC1CC(O)CC(=O)O1 (centres unmarked) [4-hydroxy-atorvastatin lactone]
pharmacological activity (inhibitory activity on HMG-CoA reductase) [1]: pharmacologically inactive

CC(C)c1c(C(=O)Nc2ccccc2)c(-c2ccccc2)c(-c2ccc(F)cc2)n1CC[C@@H]1C[C@@H](O)CC(=O)O1 [atorvastatin lactone]
pharmacological activity (inhibitory activity on HMG-CoA reductase) [1]: pharmacologically inactive

CC(C)(CCCCOCCCCC(C)(C)C(=O)O)C(=O)O [gemcabene calcium, 6,6′-oxybis(2,2-dimethylhexanoic acid)]
pharmacokinetic profile of gemcabene [2]: essentially the same
triglycerides ([3]; patients having type IIb hyperlipidemia, certain doses with a statin, versus either alone): surprising ability to lower triglycerides
LDL-C levels ([3]; patients on a stable dose of statin not able to reach the target LDL-C goal): further reduce LDL-C levels
plasma levels of LDL cholesterol (LDL-C) ([3]; separate administration with a statin, versus a statin alone): significantly reduce
fibrinogen ([3]; some doses with a statin, hypercholesterolemic human subjects with elevated fibrinogen levels): lower fibrinogen
c-reactive protein ([3]; with a statin, versus statin treatment alone): reduce c-reactive protein to an extent greater than the statin treatment alone
effect on the pharmacokinetics of simvastatin and atorvastatin [4]: not to significantly affect
